ChEMBL document CHEMBL6127116, “Discovery of Potent and Selective Blockers Targeting the Epilepsy-Associated KNa1.1 Channel” (J Med Chem, 2024)

Assays:
[1] = molecular target: Sodium channel protein type 5 subunit alpha (Homo sapiens, UniProt Q14524); experiment: Inhibition of Nav1.5 (unknown origin) expressed in HEK293T cells at 10 uM by patch-clamp electrophysiology method; type: cell-based
[2] = molecular target: T1, Potassium channel subfamily T member 1 (Homo sapiens, UniProt Q5JUK3); experiment: Inhibition of wild type human KNa1.1 expressed in HEK293T cells by patch-clamp electrophysiology method; type: cell-based
T1 sequence (Q5JUK3 whole entry): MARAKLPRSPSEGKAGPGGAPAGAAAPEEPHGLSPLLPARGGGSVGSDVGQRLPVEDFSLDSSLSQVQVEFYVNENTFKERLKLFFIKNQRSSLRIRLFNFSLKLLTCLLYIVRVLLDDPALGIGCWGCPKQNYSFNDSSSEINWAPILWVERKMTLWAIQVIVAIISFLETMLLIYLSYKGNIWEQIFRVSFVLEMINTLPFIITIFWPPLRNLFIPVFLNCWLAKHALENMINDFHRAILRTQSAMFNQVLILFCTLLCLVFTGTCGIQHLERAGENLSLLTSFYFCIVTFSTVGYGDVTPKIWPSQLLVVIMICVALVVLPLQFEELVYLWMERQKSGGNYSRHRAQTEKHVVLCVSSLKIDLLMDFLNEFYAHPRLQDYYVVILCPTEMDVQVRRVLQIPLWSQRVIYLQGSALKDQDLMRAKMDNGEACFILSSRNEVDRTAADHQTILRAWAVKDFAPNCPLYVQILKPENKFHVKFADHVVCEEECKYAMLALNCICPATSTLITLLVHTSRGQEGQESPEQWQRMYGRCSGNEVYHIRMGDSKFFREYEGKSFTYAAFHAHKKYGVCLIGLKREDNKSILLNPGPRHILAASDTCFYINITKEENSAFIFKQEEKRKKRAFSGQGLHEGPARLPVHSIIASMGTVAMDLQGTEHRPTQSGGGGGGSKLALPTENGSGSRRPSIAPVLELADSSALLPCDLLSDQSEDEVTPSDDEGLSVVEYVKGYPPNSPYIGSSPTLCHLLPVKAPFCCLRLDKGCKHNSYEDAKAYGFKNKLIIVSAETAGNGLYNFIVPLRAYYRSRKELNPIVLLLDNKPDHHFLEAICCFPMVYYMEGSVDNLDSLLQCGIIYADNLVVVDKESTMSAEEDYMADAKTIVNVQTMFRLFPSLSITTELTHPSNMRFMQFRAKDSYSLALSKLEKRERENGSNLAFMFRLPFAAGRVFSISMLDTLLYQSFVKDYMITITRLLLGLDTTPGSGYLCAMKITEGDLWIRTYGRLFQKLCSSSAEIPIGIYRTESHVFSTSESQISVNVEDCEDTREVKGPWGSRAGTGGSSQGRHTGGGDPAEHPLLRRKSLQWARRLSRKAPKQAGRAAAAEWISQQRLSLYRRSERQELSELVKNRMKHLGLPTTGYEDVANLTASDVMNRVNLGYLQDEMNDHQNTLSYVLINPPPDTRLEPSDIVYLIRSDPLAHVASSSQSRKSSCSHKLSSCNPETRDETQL

[3] = Inhibition of KNa 1.1 (unknown origin); design: species or system Homo sapiens
HEK293 = experiment: Cytotoxicity against HEK293 cells assessed as reduction in cell viability at 10 uM by CCK8 method relative to control; type: toxicity, cell-based; conditions: human, hek293, 10 µM

Sodium channel protein type 5 subunit alpha, sequence (Q14524 whole entry): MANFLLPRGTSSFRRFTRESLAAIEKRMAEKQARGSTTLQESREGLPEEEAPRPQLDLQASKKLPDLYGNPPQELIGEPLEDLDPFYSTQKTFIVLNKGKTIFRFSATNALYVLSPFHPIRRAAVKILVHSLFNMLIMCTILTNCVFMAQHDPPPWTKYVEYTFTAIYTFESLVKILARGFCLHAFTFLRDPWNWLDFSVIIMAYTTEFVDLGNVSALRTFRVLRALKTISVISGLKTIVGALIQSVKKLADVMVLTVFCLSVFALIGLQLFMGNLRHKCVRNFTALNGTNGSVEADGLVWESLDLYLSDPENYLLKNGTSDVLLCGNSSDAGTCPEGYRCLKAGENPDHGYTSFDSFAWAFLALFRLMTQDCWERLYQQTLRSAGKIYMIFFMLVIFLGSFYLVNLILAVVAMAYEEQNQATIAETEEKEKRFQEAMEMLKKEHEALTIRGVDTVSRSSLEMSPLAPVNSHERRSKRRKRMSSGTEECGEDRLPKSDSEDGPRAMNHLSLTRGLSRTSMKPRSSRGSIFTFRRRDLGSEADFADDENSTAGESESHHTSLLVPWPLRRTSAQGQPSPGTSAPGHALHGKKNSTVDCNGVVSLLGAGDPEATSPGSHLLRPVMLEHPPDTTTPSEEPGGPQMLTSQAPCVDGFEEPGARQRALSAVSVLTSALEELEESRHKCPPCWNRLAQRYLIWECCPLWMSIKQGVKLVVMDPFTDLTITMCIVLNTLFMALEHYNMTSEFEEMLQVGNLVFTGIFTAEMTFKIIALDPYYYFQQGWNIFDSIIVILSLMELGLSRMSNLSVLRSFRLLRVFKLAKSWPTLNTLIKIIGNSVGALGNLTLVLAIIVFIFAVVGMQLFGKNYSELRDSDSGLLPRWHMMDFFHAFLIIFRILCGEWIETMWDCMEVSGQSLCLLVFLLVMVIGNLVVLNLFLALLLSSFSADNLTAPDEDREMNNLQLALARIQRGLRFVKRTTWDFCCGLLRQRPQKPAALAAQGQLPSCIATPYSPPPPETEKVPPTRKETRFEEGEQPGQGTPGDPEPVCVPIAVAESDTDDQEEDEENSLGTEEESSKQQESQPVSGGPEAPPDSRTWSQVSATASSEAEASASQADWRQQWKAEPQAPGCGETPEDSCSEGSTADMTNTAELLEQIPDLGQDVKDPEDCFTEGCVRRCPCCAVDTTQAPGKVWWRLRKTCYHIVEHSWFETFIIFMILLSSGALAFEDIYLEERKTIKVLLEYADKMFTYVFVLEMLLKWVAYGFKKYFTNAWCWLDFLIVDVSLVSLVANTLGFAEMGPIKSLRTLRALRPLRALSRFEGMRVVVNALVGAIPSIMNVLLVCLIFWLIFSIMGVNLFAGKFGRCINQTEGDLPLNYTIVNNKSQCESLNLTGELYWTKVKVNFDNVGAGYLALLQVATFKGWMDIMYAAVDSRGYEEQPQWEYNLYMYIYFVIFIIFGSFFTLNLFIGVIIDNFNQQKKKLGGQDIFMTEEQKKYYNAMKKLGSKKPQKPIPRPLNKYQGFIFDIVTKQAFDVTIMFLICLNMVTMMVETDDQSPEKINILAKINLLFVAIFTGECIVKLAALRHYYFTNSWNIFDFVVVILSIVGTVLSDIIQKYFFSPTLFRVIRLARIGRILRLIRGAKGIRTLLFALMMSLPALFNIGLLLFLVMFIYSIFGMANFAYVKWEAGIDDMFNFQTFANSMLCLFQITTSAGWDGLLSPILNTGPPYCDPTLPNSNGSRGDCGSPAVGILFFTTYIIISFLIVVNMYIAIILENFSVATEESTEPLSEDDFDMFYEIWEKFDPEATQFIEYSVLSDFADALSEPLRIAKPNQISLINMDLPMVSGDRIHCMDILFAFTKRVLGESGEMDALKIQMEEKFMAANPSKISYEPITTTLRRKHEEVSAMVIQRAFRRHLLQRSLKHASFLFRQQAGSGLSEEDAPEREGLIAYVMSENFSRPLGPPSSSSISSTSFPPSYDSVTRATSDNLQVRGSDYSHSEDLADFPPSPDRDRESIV

| SMILES | inhibition (INH) [1] | IC50 [2] | IC50 [3] | Activity (HEK293) |
| --- | --- | --- | --- | --- |
| CCn1c2c(c3ccccc31)CN(CCCCNCc1c(OCc3ccc(F)cc3)ccc3ccccc13)CC2 | Not Active |  |  |  |
| CC(C)COCC(CN(Cc1ccccc1)c1ccccc1)N1CCCC1 (stereo not given) [BEPRIDIL] |  | 16.3 µM | 6.36 µM |  |
| C=C[C@H]1CN2CC[C@H]1C[C@@H]2[C@@H](O)c1ccnc2ccc(OC)cc12 [QUINIDINE] |  |  | 89.6 µM | 103.53% |
